From ChEMBL document CHEMBL1140892, “Synthesis and evaluation of rifabutin analogs against Mycobacterium avium and H(37)Rv, MDR and NRP Mycobacterium tuberculosis” (Bioorg Med Chem, 2009)
In brackets after ≈: the same amount, converted by molar mass. Activity calls are given as the source filed them. No cut-off for these calls is given here.

What was measured:
[1] = tested on: Mycobacterium tuberculosis; assay: Antimycobacterial activity against isoniazid, rifampicin and streptomycin-resistant Mycobacterium tuberculosis after 7 days by resazurin method; assay type: functional; conditions: 168 h
[2] = tested on: Mycobacterium tuberculosis; assay: Antimycobacterial activity against isoniazid, rifampicin and ethambutol-resistant Mycobacterium tuberculosis after 7 days by resazurin method; assay type: functional; conditions: 168 h
[3] = tested on: Mycobacterium tuberculosis; assay: Antimycobacterial activity against multidrug-resistant Mycobacterium tuberculosis infected in BALB/c mouse assessed as reduction of bacterial load in lungs at 5 mg/kg/day, intragastrically after 1 month relative to control; assay type: functional, organism-based

Row | Structure (SMILES) | MIC [1] | MIC [2] | Activity [3]
1 | C=CCCCCCCCCC(=O)N1C2=C3NC(=O)/C(C)=C\C=C\[C@H](C)[C@H](O)[C@@H](C)[C@@H](O)[C@@H](C)[C@H](OC(C)=O)[C@H](C)[C@@H](OC)/C=C/O[C@@]4(C)Oc5c(C)c(O)c(c(c5C4=O)C2=NC12CCN(CC(C)C)CC2)C3=O | 6 µg/mL (≈ 5.92 µM) | 6 µg/mL (≈ 5.92 µM) | Active
2 | CO[C@H]1/C=C/O[C@@]2(C)Oc3c(C)c(O)c4c(c3C2=O)C2=NC3(CCN(CC(C)C)CC3)NC2=C(NC(=O)/C(C)=C\C=C\[C@H](C)[C@H](O)[C@@H](C)[C@@H](O)[C@@H](C)[C@H](O)[C@@H]1C)C4=O | > 10 µg/mL | > 10 µg/mL | –
3 | CO[C@H]1/C=C/O[C@@]2(C)Oc3c(C)c(O)c4c(c3C2=O)C2=NC3(CC[N+]([O-])(CC(C)C)CC3)NC2=C(NC(=O)/C(C)=C\C=C\[C@H](C)[C@H](O)[C@@H](C)[C@@H](O)[C@@H](C)[C@H](OC(C)=O)[C@@H]1C)C4=O (stereo partly drawn) | > 10 µg/mL | > 10 µg/mL | –
4 | CO[C@H]1/C=C/O[C@@]2(C)Oc3c(C)c(O)c4c(c3[C@H]2O)C2=NC3(CCN(CC(C)C)CC3)N(C(C)=O)C2=C(NC(=O)/C(C)=C\C=C\[C@H](C)[C@H](O)[C@@H](C)[C@@H](O)[C@@H](C)[C@H](OC(C)=O)[C@@H]1C)C4=O | 8 µg/mL (≈ 8.98 µM) | 8 µg/mL (≈ 8.98 µM) | –
5 | CCCCCCCCCCCCCCCC(=O)N1C2=C3NC(=O)/C(C)=C\C=C\[C@H](C)[C@H](O)[C@@H](C)[C@@H](O)[C@@H](C)[C@H](OC(C)=O)[C@H](C)[C@@H](OC)/C=C/O[C@@]4(C)Oc5c(C)c(O)c(c(c5C4=O)C2=NC12CCN(CC(C)C)CC2)C3=O | > 10 µg/mL | > 10 µg/mL | –
6 | CO[C@H]1/C=C/O[C@@]2(C)Oc3c(C)c(O)c4c(c3[C@H]2O)C2=NC3(CC[N+]([O-])(CC(C)C)CC3)NC2=C(NC(=O)/C(C)=C\C=C\[C@H](C)[C@H](O)[C@@H](C)[C@@H](O)[C@@H](C)[C@H](OC(C)=O)[C@@H]1C)C4=O (stereo partly drawn) | > 10 µg/mL | > 10 µg/mL | –
7 | CO[C@H]1/C=C/O[C@@]2(C)Oc3c(C)c(O)c4c(c3[C@H]2O)C2=NC3(CCN(CC(C)C)CC3)NC2=C(NC(=O)/C(C)=C\C=C\[C@H](C)[C@H](O)[C@@H](C)[C@@H](O)[C@@H](C)[C@H](O)[C@@H]1C)C4=O | > 10 µg/mL | > 10 µg/mL | –
8 | CO[C@H]1/C=C/O[C@@]2(C)Oc3c(C)c(O)c4c(c3C2=O)C2=NC3(CCN(CC(C)C)CC3)N(C(C)=O)C2=C(NC(=O)/C(C)=C\C=C\[C@H](C)[C@H](O)[C@@H](C)[C@@H](O)[C@@H](C)[C@H](OC(C)=O)[C@@H]1C)C4=O | > 10 µg/mL | > 10 µg/mL | Active
9 | CO[C@H]1/C=C/O[C@@]2(C)Oc3c(C)c(O)c4c(c3C2=O)C2=NC3(CC[N+]([O-])(CC(C)C)CC3)NC2=C(NC(=O)/C(C)=C\C=C\[C@H](C)[C@H](O)[C@@H](C)[C@@H](O)[C@@H](C)[C@H](O)[C@@H]1C)C4=O (stereo partly drawn) | > 10 µg/mL | > 10 µg/mL | –
10 | CO[C@H]1/C=C/O[C@@]2(C)Oc3c(C)c(O)c4c(c3C2=O)C2=NC3(CCN(CC(C)C)CC3)NC2=C(NC(=O)/C(C)=C\C=C\[C@H](C)[C@H](O)[C@@H](C)[C@@H](O)[C@@H](C)[C@H](OC(C)=O)[C@@H]1C)C4=O [RIFABUTIN] | > 10 µg/mL | > 10 µg/mL | Active
